Source: PMC10740580, “Benzothiazole-Phthalimide Hybrids as Anti-Breast Cancer and Antimicrobial Agents” (Antibiotics, 2023)
Values after ≈ are worked out from the molar mass of the structure shown.

Key:
[1] = test system: MDA-MB-231 cells; test: MTT cell viability assay, MDA-MB-231; format: cell-based, human; details: mean ± SD; for IC50: Homo sapiens, MDA-MB-231, 72 h exposure
Protocol: The anticancer activity of the studied compounds (3a–h) was explored with regards to two human breast cancer cell lines, namely the estrogen receptor positive (ER+) MCF-7 cells and the triple negative MDA-MB-231 cells (ER-, PR-, and HER-2/Neu-). Cells were continuously exposed to the test substances for 72 h, after which their viability was assessed by means of the MTT assay. Table 2 lists the determined IC50 values for the investigated substances and the reference drug, thalidomide. […] Additionally, the same test for all the compounds has been performed on nonmalignant breast epithelial cells (MCF-10A) to ascertain their potential cytotoxicity.
The four cell lines used in this work (MCF-7, MDA-MB-231, MCF-10A, and 3T3-L1) were obtained from the American Type Culture Collection (ATCC, Manassas, VA, USA). All cell lines were maintained at 37 °C in a humidified atmosphere of 95% air and 5% CO2 and periodically screened for contamination. MCF-7, human breast cancer cells estrogen receptor (ER)-positive, and human breast cancer triple negative MDA-MB231 were grown in DMEM-F12 medium containing 2 mmol/L L-glutamine, 1 mg/mL penicillin–streptomycin, and 5% newborn calf serum (NCS) or 5% fetal bovine serum (FBS), respectively. MCF-10A human mammary epithelial cells were cultured in DMEM/F12 medium, supplemented with 5% horse serum (HS) (Eurobio, Les Ullis, Cedex, France), 100 U/mL penicillin/streptomycin, […], 20 ng/mL hEGF (human epidermal growth factor), […], and […] (Sigma-Aldrich, Milano, Italy). BALB/3T3 murine fibroblast cells were cultured in DMEM high glucose supplemented with 10% bovine calf serum (BCS), 1% L-glutamine, and 100 U/mL penicillin/streptomycin.
Cell viability was evaluated by means of the 3-(4,5-dimethylthiazol-2-y1)-2,5-diphenyltetra zolium bromide (MTT, Sigma-Aldrich, Milan, Italy) assay. On 48-well plates, cells were seeded, and they were cultured in complete medium. Before being treated, cells were starved in serum-free medium for 24 h to allow cell cycle synchronization. Subsequently, cells were exposed to increasing doses of each compound for 72 h in phenol-red-free media supplemented with 1% serum before fresh MTT was added to each well (final concentration: 0.5 mg/mL). Cells were lysed with DMSO after 2 h of incubation at 37 °C, and optical density at 570 nm was then determined with a microplate reader. Using GraphPad Prism 9 software (GraphPad Inc., San Diego, CA, USA), the mean absorbance for each sample was expressed as a percentage over the control and plotted vs. drug concentrations to establish the IC50 values. The given standard deviations (SDs) are indicative of three separate tests carried out in triplicate.

[2] = test system: Enterococcus faecalis 29212; test: Broth microdilution, E. faecalis ATCC 29212; format: cell-based; details: 24 h, 37 °C, read-out: MIC E.f. 29212
Description: (§1) Compounds 3a–h were examined in accordance with the Clinical Laboratory Standards Institute (CLSI) recommendations, by means of the broth microdilution method, against gram-positive bacteria (Staphylococcus aureus 25923, Staphylococcus aureus 29213, Staphylococcus aureus 43300, Enterococcus faecalis 29212) and gram-negative bacteria (Escherichia coli 25922, Klebsiella pneumoniae 13883, Pseudomonas aeruginosa 27853) belonging to the ATCC collection, using levofloxacin as a reference drug. Table 3 lists the results, expressed as MIC (µg/mL). […] The lack of activity observed for compound 3d could be conceivably due to its poor solubility in the culture medium containing the inoculum.
Following the recommendations of the CLSI (Clinical and Laboratory Standards Institute, 2012), the broth microdilution method was used to determine the in vitro minimum inhibitory concentrations (MICs, µg/mL).. The concentration of the investigated compounds was set to its highest value to create stock solutions. Then, the stock solutions were diluted 1:10 with Cation-Adjusted Mueller Hinton Broth (Oxoid, Milan, Italy). After that, a series of concentrations from 512 µg/mL to […] were obtained in the wells by performing two-fold serial dilutions in the appropriate test medium. The diluent used to create the stock solution was 100% DMSO. We used the following bacterial strains from the ATCC collection that were available as freeze-dried discs: gram-positive strains such as S. aureus ATCC 25923, 29213, and 43300, and E. faecalis ATCC 29212, and gram-negative ones such as E. coli ATCC 25922, K. pneuomoniae ATCC 13883, and P. aeruginosa ATCC 27853. To preserve the purity of cultures and to allow their reproducibility, cryovials of all microbial strains were set up in the medium and stored at −80 °C. Mueller Hinton Broth (MHB) was used to prepare pre-cultures of each bacterial strain, which were then incubated for 3–5 h at 37 °C. In accordance with CLSI procedure M7-A9, the turbidity of the bacterial cell suspension was calibrated to 0.5 McFarland Standard using a spectrophotometric approach (OD625 nm 0.08–0.10). The standardized suspension was then further diluted (1:100) with MHB to reach 1–2 × 10^6 CFU/mL. A 200 µL aliquot of the final inoculum was inserted into each well. As a control for growth, several wells containing only inoculated broth were prepared. The plates were incubated at 37 °C for 24 h, and the MIC values were calculated as the lowest concentration of compounds at which there was no optically detectable bacteria growth. Each experiment was carried out in duplicate and repeated twice to determine the MICs. Levofloxacin served as the study’s standard reference antibiotic. Additionally, the antibacterial activity of DMSO alone (used as a diluent for the investigated compounds) was examined; therefore, volumes of this solvent with a concentration of less than 5% were utilized throughout the experimentation.

[3] = test system: angiogenesis; details: previous study, reduced side effects compared to thalidomide; cited from earlier work
[4] = test system: gram-positive bacteria; test: Broth microdilution, gram-positive bacteria; format: cell-based; details: read-out: MIC against gram-positive bacteria
Description: as §1
Following the recommendations of the CLSI (Clinical and Laboratory Standards Institute, 2012), the broth microdilution method was used to determine the in vitro minimum inhibitory concentrations (MICs, µg/mL).. The concentration of the investigated compounds was set to its highest value to create stock solutions. Then, the stock solutions were diluted 1:10 with Cation-Adjusted Mueller Hinton Broth (Oxoid, Milan, Italy). After that, a series of concentrations from 512 µg/mL to […] were obtained in the wells by performing two-fold serial dilutions in the appropriate test medium. The diluent used to create the stock solution was 100% DMSO. […]

[5] = test system: gram-negative bacteria; test: Broth microdilution, gram-negative bacteria; format: cell-based; details: read-out: MIC against gram-negative bacteria
Description: as §1
Following the recommendations of the CLSI (Clinical and Laboratory Standards Institute, 2012), the broth microdilution method was used to determine the in vitro minimum inhibitory concentrations (MICs, µg/mL).. The concentration of the investigated compounds was set to its highest value to create stock solutions. Then, the stock solutions were diluted 1:10 with Cation-Adjusted Mueller Hinton Broth (Oxoid, Milan, Italy). After that, a series of concentrations from 512 µg/mL to […] were obtained in the wells by performing two-fold serial dilutions in the appropriate test medium. The diluent used to create the stock solution was 100% DMSO. We used the following bacterial strains from the ATCC collection that were available as freeze-dried discs: gram-positive strains such as S. aureus ATCC 25923, 29213, and 43300, and E. faecalis ATCC 29212, and gram-negative ones such as E. coli ATCC 25922, K. pneuomoniae ATCC 13883, and P. aeruginosa ATCC 27853. To preserve the purity of cultures and to allow their reproducibility, cryovials of all microbial strains were set up in the medium and stored at −80 °C. Mueller Hinton Broth (MHB) was used to prepare pre-cultures of each bacterial strain, which were then incubated for 3–5 h at 37 °C. […]

Row | IC50 [1] [µM] | MIC [2] [µg/mL] | melting point [°C] | IC50 MDA-MB-231 ([1]; 72 h exposure) | Structure (SMILES) | antiangiogenic activity [3] | MIC [4] [µg/mL] | MIC [5] [µg/mL]
1 | 81.8 ± 0.8 | 64 (≈ 228 µM) | 249 to 250 | – | O=C1c2ccccc2C(=O)N1c1nc2ccccc2s1 [3a, 2-(1,3-benzothiazol-2-yl)-1H-isoindole-1,3(2H)-dione] | performed as antiangiogenic agents | – | –
2 | 71.2 ± 1 | 64 (≈ 215 µM) | 234 to 235 | – | O=C1c2ccccc2C(=O)N1c1nc2ccc(F)cc2s1 [3b, 2-(6-Fluoro-1,3-benzothiazol-2-yl)-1H-isoindole-1,3(2H)-dione] | – | – | –
3 | > 500 | 64 (≈ 184 µM) | – | did not possess any activity | O=C1c2ccccc2C(=O)N1c1nc2ccc(C(F)(F)F)cc2s1 [3c, 2-[6-Trifluoromethyl-1,3-benzothiazol-2-yl]-1H-isoindole-1,3(2H)-dione] | – | – | –
4 | 202.6 ± 0.6 | > 512 | > 250 | – | Cc1ccc2nc(N3C(=O)c4ccccc4C3=O)sc2c1 [3d, 2-[6-Methyl-1,3-benzothiazol-2-yl]-1H-isoindole-1,3(2H)-dione] | performed as antiangiogenic agents | – | –
5 | 102.8 ± 0.9 | 64 (≈ 206 µM) | 227 to 229 | – | COc1ccc2nc(N3C(=O)c4ccccc4C3=O)sc2c1 [3e, 2-[6-Methoxy-1,3-benzothiazol-2-yl]-1H-isoindole-1,3(2H)-dione] | – | – | –

Row | Structure (SMILES) | IC50 [1] [µM] | MIC [2] [µg/mL] | melting point [°C] | IC50 MDA-MB-231 ([1]; 72 h exposure) | antiangiogenic activity [3] | MIC [4] [µg/mL] | MIC [5] [µg/mL]
6 | COc1cc2nc(N3C(=O)c4ccccc4C3=O)sc2cc1OC [3f, 2-[5,6-Dimethoxy-1,3-benzothiazol-2-yl]-1H-isoindole-1,3(2H)-dione] | 49.6 ± 1 | 32 (≈ 94 µM) | > 250 | – | – | 32 to 64 (≈ 94 to 188 µM) | 64 (≈ 188 µM)
7 | O=C1c2ccccc2C(=O)N1c1nc2ccc(O)cc2s1 [3g, 2-[6-Hydroxy-1,3-benzothiazol-2-yl]-1H-isoindole-1,3(2H)-dione] | 63.3 ± 0.7 | 32 (≈ 108 µM) | > 250 | – | – | 32 to 64 (≈ 108 to 216 µM) | 64 (≈ 216 µM)
8 | O=C1c2ccccc2C(=O)N1c1nc2ccc(Oc3ccccc3)cc2s1 [3h, 2-[6-Phenoxy-1,3-benzothiazol-2-yl]-1H-isoindole-1,3(2H)-dione] | 14 ± 0.5 | 32 (≈ 85.9 µM) | – | – | – | – | 32 (≈ 85.9 µM)
